# Read-outs that look alike come from different tables or passages of the source.
# Tests used:
# Assay type in all cases: biochemical
# [1] = target: mouse trypsin isoform T8 (anionic trypsin) (Mus musculus, UniProt Q9R0T7); test: biochemical; settings: for kcat / Km: GPR-pNA, 24°C
# Description: (§1) Recombinant human and mouse trypsinogens were expressed in Escherichia coli BL21(DE3) (Invitrogen), refolded in vitro, and purified by ecotin affinity chromatography (Pharmacia FPLC), according to published protocols ([60], [63], [64]). Sulfated human trypsinogens were purified from archived samples of human pancreatic juice, as described previously, with minor modifications ([65], [66]). Briefly, 50 mg freeze-dried pancreatic juice was dissolved in 2 mL 10 mM HCl, clarified by centrifugation (21,000g, 5 minutes, 4°C), and loaded onto a MonoQ 5/50 GL column equilibrated with 20 mM Tris-HCl (pH 8.0). Proteins were eluted with a 0–0.5 M NaCl gradient at 1 mL/min flow rate for 30 minutes. The fractions containing the cationic and anionic trypsinogens were further purified with ecotin affinity chromatography. The concentration of trypsinogen preparations was estimated from their UV absorbance at 280 nm using the extinction coefficients reported previously for mouse trypsinogens ([64]) and 37,525, 38,890, and 41,535/M/cm for human cationic trypsinogen (PRSS1), anionic trypsinogen (PRSS2), and mesotrypsinogen (PRSS3), respectively. To activate trypsinogen to trypsin, approximately 1 μM solution was incubated at 37°C with 28.2 ng/mL human enterokinase (final concentration) in 0.1 M Tris-HCl (pH 8.0), 10 mM CaCl2, and 0.05% Tween 20 for 1 hour. The activation reaction was followed by measuring trypsin activity: 2 μL trypsin was diluted in 48 μL assay buffer [0.1 M Tris-HCl (pH 8.0), 1 mM CaCl2, and 0.05% Tween 20], and 150 μL of 200 μM GPR-pNA trypsin substrate (in assay buffer) was added. Substrate cleavage resulting in the release of the yellow p-nitroaniline was monitored for 1 minute in a Spectramax Plus 384 microplate reader at 405 nm.
# (§2) Michaelis-Menten kinetic parameters of trypsin isoforms were determined with the chromogenic substrate GPR-pNA at 24°C. The trypsin concentration was 1 nM and the substrate concentration was varied typically between 1.56 and 200 μM in a final volume of 200 μL assay buffer. The substrate concentration range was 3.1–400 μM for mouse trypsin isoform T7 and 0.4–50 μM for mouse trypsin isoform T20. Km and kcat values were calculated from hyperbolic fits to plots of reaction velocity versus substrate concentration.
# (§3) Michaelis-Menten kinetic parameters were then measured after adding 100 μL trypsin substrate, as described above. […] To determine the Ki, the Km values were plotted as a function of the inhibitor concentration, and the Ki was calculated by dividing the y axis intercept with the slope of the linear fit. This value corresponds to the negative of the x axis intercept. Alternatively, the substrate saturation curves obtained in the absence and presence of the increasing inhibitor concentrations were globally fitted to the competitive inhibition equation y = vmax × (x/[KmObs+ x]), where y is the reaction velocity, vmax is the maximal velocity, x is the substrate concentration, and KmObs = Km × (1 + [I]/Ki), where [I] is the inhibitor concentration. Experiments were performed 3 times and each experiment was analyzed separately. […] Kinetic analysis was performed with the Prism 8 program (GraphPad).
# [2] = target: mouse trypsin isoform T9 (anionic trypsin) (Mus musculus, UniProt Q9QUK9); test: biochemical; settings: for kcat / Km: GPR-pNA, 24°C; for Ki: mean ± SD, n = 3
# Description: as §1, §2, §3
# bovine trypsin = target: T1, bovine trypsin (Bos taurus, UniProt P00760); test: Competitive inhibition kinetics of trypsin, GPR-pNA substrate; settings: 24°C
# T1 construct: purchased Worthington Biochemical Corporation LS003707
# T1 sequence (P00760 24-246): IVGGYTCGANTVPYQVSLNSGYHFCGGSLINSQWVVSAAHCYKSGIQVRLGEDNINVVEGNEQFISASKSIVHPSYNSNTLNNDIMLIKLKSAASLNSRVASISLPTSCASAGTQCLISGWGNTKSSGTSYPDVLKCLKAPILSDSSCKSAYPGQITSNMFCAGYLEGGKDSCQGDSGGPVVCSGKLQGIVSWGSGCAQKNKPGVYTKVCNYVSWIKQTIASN
# Description: Bovine trypsin (catalog number LS003707) was purchased from Worthington Biochemical Corporation and was active-site titrated with p-nitrophenyl p’-guanidino-benzoate (catalog number N-8010, MilliporeSigma) ([59]). Ecotin was produced and purified as reported previously ([60]). The concentration of ecotin was determined by titration against active-site titrated bovine trypsin. Recombinant human pro-enterokinase (catalog number 1585-SE-010) was purchased from R&D Systems and was activated with human cationic trypsin. The trypsin substrate GPR-pNA (catalog number 4000768.0100) was purchased from Bachem Americas. […] Michaelis-Menten kinetic parameters of trypsin isoforms were determined with the chromogenic substrate GPR-pNA at 24°C. […] Km and kcat values were calculated from hyperbolic fits to plots of reaction velocity versus substrate concentration. […] To determine the Ki, the Km values were plotted as a function of the inhibitor concentration, and the Ki was calculated by dividing the y axis intercept with the slope of the linear fit. This value corresponds to the negative of the x axis intercept. […] Experiments were performed 3 times and each experiment was analyzed separately. […] Kinetic analysis was performed with the Prism 8 program (GraphPad).
# [3] = target: mouse trypsin isoform T7 (cationic trypsin) (Mus musculus, UniProt Q9CPN9); settings: GPR-pNA, 24°C
# Description: as §1, §2, §3
# [4] = target: human and mouse trypsin isoforms; test: Ki ranges over the panel of trypsin isoforms
# Description: Michaelis-Menten kinetic parameters of trypsin isoforms were determined with the chromogenic substrate GPR-pNA at 24°C. […] Km and kcat values were calculated from hyperbolic fits to plots of reaction velocity versus substrate concentration. […] To determine the Ki, the Km values were plotted as a function of the inhibitor concentration, and the Ki was calculated by dividing the y axis intercept with the slope of the linear fit. This value corresponds to the negative of the x axis intercept. […] Experiments were performed 3 times and each experiment was analyzed separately. […] Kinetic analysis was performed with the Prism 8 program (GraphPad).
# [5] = range over trypsin isoforms tested, read-out: Ki range, individual fit analysis
# mouse trypsin isoform T9 (anionic trypsin), sequence (Q9QUK9 24-246): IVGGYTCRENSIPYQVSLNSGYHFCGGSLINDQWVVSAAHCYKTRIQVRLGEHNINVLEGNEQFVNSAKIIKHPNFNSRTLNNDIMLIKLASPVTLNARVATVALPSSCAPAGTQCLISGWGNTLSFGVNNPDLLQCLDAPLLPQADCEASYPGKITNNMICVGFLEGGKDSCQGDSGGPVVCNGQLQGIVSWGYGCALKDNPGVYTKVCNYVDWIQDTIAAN
# mouse trypsin isoform T7 (cationic trypsin), sequence (Q9CPN9 entry or part of it): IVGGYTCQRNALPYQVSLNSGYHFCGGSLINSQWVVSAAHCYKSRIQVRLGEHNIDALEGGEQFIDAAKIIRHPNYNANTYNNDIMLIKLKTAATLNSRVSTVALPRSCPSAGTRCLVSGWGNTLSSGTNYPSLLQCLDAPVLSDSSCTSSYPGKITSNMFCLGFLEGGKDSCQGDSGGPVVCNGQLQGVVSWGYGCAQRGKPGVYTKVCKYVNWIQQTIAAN
# mouse trypsin isoform T8 (anionic trypsin), sequence (Q9R0T7 24-246): as the sequence (Q9QUK9 24-246) above, with I12V, T44S, D218N counted along it
compound,measurement,setting,value
N=C(N)c1ccccc1 [benzamidine],kcat,[1]; 12.5 μM benzamidine,103.9 ± 7.9 per second
same,kcat,[1]; 25 μM benzamidine,105.6 ± 4.9 per second
same,kcat,[1]; 37.5 μM benzamidine,100.2 ± 0.8 per second
same,kcat,[1]; 50 μM benzamidine,105.5 ± 7 per second
same,Ki,"[1]; mean ± SD, n = 3",6700 ± 1300 nM
same,kcat,[2]; 12.5 μM benzamidine,110 ± 3.4 per second
same,kcat,[2]; 25 μM benzamidine,111.4 ± 2.8 per second
same,kcat,[2]; 37.5 μM benzamidine,114.8 ± 2.8 per second
same,kcat,[2]; 50 μM benzamidine,112.3 ± 4.5 per second
same,Ki,[2],6800 ± 1000 nM
same,kcat,bovine trypsin; 25 μM benzamidine,109 ± 9.5 per second
same,kcat,bovine trypsin; 50 μM benzamidine,115.8 ± .9 per second
same,kcat,[3]; 12.5 μM benzamidine,125.4 ± 2.7 per second
same,kcat,[3]; 25 μM benzamidine,125.5 ± 3.5 per second
same,kcat,[3]; 37.5 μM benzamidine,135 ± 3.9 per second
same,kcat,[3]; 50 μM benzamidine,127.9 ± 7.5 per second
same,Ki,[4]; [5],3300 to 20600 nM
[H]/N=C(/N)c1ccc(NCc2nc3cc(C(=O)N(CCC(=O)O)c4ccccn4)ccc3n2C)cc1 [dabigatran],Ki,[1],31.6 ± 2.6 nM
same,Km,[1]; 50 nM dabigatran,20.6 ± 1.5 µM
same,kcat,[1]; 50 nM dabigatran,90.4 ± 1 per second
same,Km,[1]; 100 nM dabigatran,34.2 ± 4.1 µM
same,kcat,[1]; 100 nM dabigatran,92.3 ± 1.6 per second
same,Km,[1]; 150 nM dabigatran,46.3 ± 3 µM
same,kcat,[1]; 150 nM dabigatran,88.9 ± 1.3 per second
same,Km,[1]; 200 nM dabigatran,60.8 ± 4 µM
same,kcat,[1]; 200 nM dabigatran,85.1 ± 7.2 per second
same,Km,[2]; 50 nM dabigatran,19.8 ± 2.7 µM
same,kcat,[2]; 50 nM dabigatran,75.8 ± 2 per second
same,Km,[2]; 100 nM dabigatran,28.3 ± 2.8 µM
same,kcat,[2]; 100 nM dabigatran,72.5 ± 2.6 per second
same,Km,[2]; 150 nM dabigatran,46.1 ± 2.4 µM
same,kcat,[2]; 150 nM dabigatran,78.4 ± 0.1 per second
same,Km,[2]; 200 nM dabigatran,56.7 ± 7.3 µM
same,kcat,[2]; 200 nM dabigatran,77.6 ± 2.5 per second
same,Ki,"[2]; Ki dabigatran, Global fit",35.8 ± 3.5 nM
same,Ki,"[2]; Ki dabigatran, Individual fit",28.4 ± 7.1 nM
same,Km,bovine trypsin; 50 nM dabigatran,49.5 ± 3.3 µM
same,kcat,bovine trypsin; 50 nM dabigatran,127.7 ± 0.8 per second
same,Km,bovine trypsin; 100 nM dabigatran,71.6 ± 3.5 µM
same,kcat,bovine trypsin; 100 nM dabigatran,126.6 ± 3.5 per second
same,Km,bovine trypsin; 150 nM dabigatran,91.9 ± 4.9 µM
same,kcat,bovine trypsin; 150 nM dabigatran,123.8 ± 2.9 per second
same,Km,bovine trypsin; 200 nM dabigatran,126 ± 7 µM
same,kcat,bovine trypsin; 200 nM dabigatran,130.1 ± 1.4 per second
same,kcat,[3]; 100 nM dabigatran,47.5 ± 2 per second
same,kcat,[3]; 150 nM dabigatran,50.1 ± 1.5 per second
same,kcat,[3]; 200 nM dabigatran,49.3 ± 1.7 per second
same,Ki,"[4]; all human and mouse trypsin isoforms, read-out: Ki range",10 to 79 nM
same,Ki,"[4]; range over trypsin isoforms tested, read-out: Ki range, global fit analysis",10.3 to 78.9 nM
same,Ki,[4]; [5],10 to 65 nM
